Tests used:
[1] = test system: medulloblastoma cells from Ptch1−/− mice; test: Medulloblastoma cell proliferation, 48 h treatment (Ki67 immunocytochemistry); type: cell-based, mouse
Experimental: (§1) To examine the functions of exosomes in medulloblastoma cell proliferation, tumor cells from Ptch1^−/− mice were isolated and treated with GW4869 or DMSO for 48 hours. […] To determine whether tumor cell-derived exosomes mediate vismodegib resistance, exosomes from medulloblastoma cells were collected and treated with 200 nM of vismodegib for 48 hours. Medulloblastoma cells from Ptch1^−/− mice were treated with DMSO, vismodegib, or vismodegib together with tumor cell-derived exosomes for 48 hours. Following treatment, medulloblastoma cells were harvested to examine their proliferation by immunocytochemistry (see, FIG. 4). […] Finally, exosomes from medulloblastoma cells were harvested and treated with DMSO or vismodegib for 48 hours.

[2] = test system: MB-luciferase cells injected into the cerebellum; test: In vivo bioluminescence imaging of MB-luciferase tumor growth in NSG mice; set-up: species or system mouse
Experimental: MB-luciferase cells were generated and stereotaxically injected into the cerebellum of 6- to 8-week-old NSG mice. Animals were monitored weekly using in vivo bioluminescence imaging and bioluminescence was detected as Day 0. The tumor-bearing mice were treated with vismodegib (50 mg/kg) for 7 days. These mice were separated into two groups randomly, one group was treated with a vehicle and another group was treated with GW4869 (1.25 mg/kg per day) for 3 weeks (FIG. 9A). They were monitored weekly using in vivo bioluminescence imaging (FIG. 9B).

[3] = test system: Gli1 mRNA (shh signaling) in medulloblastoma cells; test: Gli1 mRNA levels in MB cells by q-PCR; type: cell-based, mouse; details: MB cells after 48 hours treatment
Experimental: as §1

[4] = test system: Ras protein in exosomes derived from medulloblastoma cells; test: Western blotting of Ras in exosomes from treated MB cells; type: cell-based, mouse; details: exosomes from MB cells treated with DMSO or vismodegib for 48 hours
Experimental: as §1

| SMILES | medulloblastoma cell proliferation ([1]; tumor cells from Ptch1−/− mice, GW4869 vs DMSO, data not shown) | tumor growth (bioluminescence) after 28 days, with vs without GW4869 ([2]; after vismodegib 50 mg/kg 7 days, GW4869 1.25 mg/kg per day 3 weeks vs vehicle, p<0.05) | medulloblastoma cell proliferation (Ki67+ cells) ([1]; MB cells from Ptch1−/− mice, DMSO vs vismodegib vs vismodegib + exosomes, exosome-donor cells vismodegib 200 nM) | Gli1 mRNA levels [3] | tumor growth (bioluminescence) ([2]; vismodegib 50 mg/kg for 7 days) | Ras protein in exosomes [4] |
| --- | --- | --- | --- | --- | --- | --- |
| Cl.Cl.O=C(C=Cc1ccc(C=CC(=O)Nc2ccc(C3=NCCN3)cc2)cc1)Nc1ccc(C2=NCCN2)cc1 [GW4869, N,N′-Bis[4-(4,5-dihydro-1H-imidazol-2-yl)phenyl]-3,3′-p-phenylene-bis-acrylamide dihydrochloride] | significantly repressed medulloblastoma cell proliferation | significant difference |  |  |  |  |
| CS(=O)(=O)c1ccc(C(=O)Nc2ccc(Cl)c(-c3ccccn3)c2)c(Cl)c1 [vismodegib] |  |  | significantly repressed tumor cell proliferation | decreased | significantly reduce tumor growth | readily detected |

— patent US20230184770A1, “Exosome Analysis And Brain Tumors” (Institute For Cancer Research d/b/a The Research Institute …, priority 2020, published 2023)
